Laboratory results: EP0490818B1, “6-CYCLOHEXYL-2'-0-METHYL-ADENOSINE HYDRATE AND USES THEREOF” (Novartis AG, priority 1990, dated 1992)
Read-outs that look alike come from different tables or passages of the source.

Key:
A1 receptor [1] = target: T1, A1 receptor (Sus scrofa, UniProt I3LEN5); test: biochemical
T1 sequence (I3LEN5 1-326): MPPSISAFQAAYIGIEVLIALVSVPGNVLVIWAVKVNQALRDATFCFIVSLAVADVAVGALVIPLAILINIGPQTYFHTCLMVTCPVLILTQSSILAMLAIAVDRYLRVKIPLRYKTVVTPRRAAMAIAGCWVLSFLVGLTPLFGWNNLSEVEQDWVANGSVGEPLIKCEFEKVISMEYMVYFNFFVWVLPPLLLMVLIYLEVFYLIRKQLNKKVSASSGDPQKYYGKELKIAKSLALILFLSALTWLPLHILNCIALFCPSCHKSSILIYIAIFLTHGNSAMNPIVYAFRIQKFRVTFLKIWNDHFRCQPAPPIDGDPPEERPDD
Method: (§1) Pig striatal membranes were prepared as previously described by H. Bruns et al. in Molecular Pharmacology 29 (1986) pages 331-344. ^3H-NECA, a non-selective adenosine receptor agonist was used to label both A1 and A2 receptors. IC50 values were derived from the displacement curves by weighted non-linear least-square curve fitting to the Langmuir equation and pKD values calculated.

A2 receptor = target: T2, A2 receptor (Sus scrofa, UniProt K9IW67); test: Affinity for adenosine receptors, displacement of 3H-NECA binding in striatal membranes (A2); design: species or system Pig
T2 construct: Pig striatal membranes were prepared as previously described; from tissue; host or cells: pig striatum (membranes)
T2 sequence (K9IW67 1-409): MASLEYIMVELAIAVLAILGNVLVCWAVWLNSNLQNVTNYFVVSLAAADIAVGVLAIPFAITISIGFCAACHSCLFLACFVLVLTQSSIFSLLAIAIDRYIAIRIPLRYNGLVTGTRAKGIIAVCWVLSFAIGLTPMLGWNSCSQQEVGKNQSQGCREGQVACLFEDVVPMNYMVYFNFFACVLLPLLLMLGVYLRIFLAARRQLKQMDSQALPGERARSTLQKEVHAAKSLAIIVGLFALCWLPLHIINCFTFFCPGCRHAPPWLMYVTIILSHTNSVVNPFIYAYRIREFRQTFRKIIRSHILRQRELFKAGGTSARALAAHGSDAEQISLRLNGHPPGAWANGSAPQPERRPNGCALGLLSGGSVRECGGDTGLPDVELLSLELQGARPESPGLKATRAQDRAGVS
Method: as §1

A1 receptor [2] = details: ratio of A2 KD to A1 KD, pig striatal membranes
Method: as §1

[3] = Plasma free fatty acids and triglycerides in the monkey (dyslipidemias with elevated serum triglycerides); assay type: in vivo; details: Rhesus monkey
Excerpt: Several studies have shown a positive correlation between serum triglyceride levels and the risk for coronary heart disease (CHD) (Grundy, in Cholesterol and Atherosclerosis: Diagnosis and Treatment, Lippincott, Philadelphia (1990)). The value of reducing elevated triglyceride levels as an approach to reducing the risk of CHD emerged from the Helsinki Heart Study where, following treatment with gemfibrozil, the greatest reduction in serious coronary events occured in Type IIB hyperlipidemic patients in whom both LDL-cholesterol and total serum triglycerides were elevated.

| SMILES | Kd (A1 receptor [1]) [nM] | Kd (A2 receptor; Pig striatal membranes, 3H-NECA label, mean ± spread, read-out: A2 (KD;nM)) [nM] | A1:A2 selectivity (A1 receptor [2]) | Kd (A2 receptor) [nM] | plasma free fatty acids [3] | plasma triglycerides [3] |
| --- | --- | --- | --- | --- | --- | --- |
| CCNC(=O)[C@H]1O[C@@H](n2cnc3c(N)nc(NCCc4ccc(CCC(=O)O)cc4)nc32)[C@H](O)[C@@H]1O [CGS 21680, 2-[p-(2-Carboxyethyl)phenethylamino]-5'-N-ethyl carboxamido-adenosine] | 4360 ± 1080 | – | – | – | – | – |
| Nc1nc(Nc2ccccc2)nc2c1ncn2[C@@H]1O[C@H](CO)[C@@H](O)[C@H]1O [CV 1808, 2-Phenylaminoadenosine, reference compound] | 2460 ± 757 | 269 ± 70 | 0.1 | – | – | – |
| CO[C@@H]1[C@H](O)[C@@H](CO)O[C@H]1n1cnc2c(NC3CCCCC3)ncnc21 [Compound No. 7 1.5 H2O, 6-cyclohexyl-2'-O-methyl-adenosine 1.5 hydrate] | 23 ± 2 | – | 1090 | 24500 ± 5160 | substantial and long-lasting falls | substantial and long-lasting falls |
